# According to patent US7169891B2, “Human pellino polypeptides” (Immunex Corporation, priority 2000, dated 2007):
# B1: wild-type-FLAG: unaltered murine Pellino-1 (SEQ ID NO:2) fused to the FLAG epitope (protein, listed as Mus musculus)
# chain: MFSPDQENHPSKAPVKYGELIVLGYNGSLPNGDRGRRKSRFALFKRPKANGVKPSTVHIACTPQAAKAISNKDQHSISYTLSRAQTVVVEYTHDSNTDMFQIGRSTESPIDFVVTDTVPGSQSNSDTQSVQSTISRFACRIICERSPPFTARIYAAGFDSSKNIFLGEKAAKWKTSDGQMDGLTTNGVLVMHPRNGFTEDSKPGIWREISVCGNVFSLRETRSAQQRGKMVEIETNQLQDGSLIDLCGATLLWRTAEGLSHTPTVKHLEALRQEINAARPQCPVGFNTLAFPSMKRKDVVDEKQPWVYLNCGHVHGYHNWGNKEERDGKDRECPMCRSVGPYVPLWLGCEAGFYVDAGPPTHAFSPCGHVCSEKTTAYWSQIPLPHGTHTFHAACPFCAHQLAGEQGYIRLIFQGPLD
# modifications: FLAG tag
# B2: wild-type Pellino-1: wild-type Pellino-1 polypeptide expressed in COS cells; murine sequence SEQ ID NO:2 (protein, listed as Mus musculus)
# chain: B1 chain
# Key:
# [1] = test system: Pellino-1; test: Effect of cell stimulation on Pellino-1 localization and cleavage in transfected COS-7 cells; type: cell-based, monkey; details: for Effect of growth factor incubation on Pellino-1 (cleavage and redistribution): Pellino-1-transfected cells, concentration not given
# Description: This example describes the effect of stimulation of COS-7 cells transfected with an expression vector encoding FLAG-Pellino-1 with IL-1 or other molecules. Transfected cells are prepared substantially as described above. […] As Drosophila Pellino was identified by its ability to associate with Pelle, experiments in which Pellino is coexpressed with IRAK have been performed to determine if mammalian Pellino interacted with IRAK, the presumptive mammalian counterpart of Pelle.
# To determine if the observed redistribution and proteolytic processing of Pellino-1 specifically required IRAK, Pellino-1-transfected cells were stimulated with agents that activate NF-kB by IRAK-independent pathways such as phorbol myristate acetate (PMA, 100 ng/ml), which is known to promote many of the same intracellular signals as IL-1, and TNF-alpha (20 ng/ml). TNF-alpha activates NF-kB through a mechanism involving the adaptor protein TRADD, the kinase RIP, and TRAF2, while PMA stimulates the activity of protein kinase C which is known to cross-talk with the NF-kB pathway. […] In both cases, 2 to 3 hours of exposure to the stimulus was required before significant Pellino cleavage was seen. The total amount of detectable Pellino-1 polypeptide (the sum of soluble and insoluble fractions) was increased in the presence of PMA or TNF-alpha, which presumably reflects a change in the net rates of Pellino-1 synthesis and/or degradation. […] EGF has been reported in some cells to activate NF-kB through the induction of IkB-alpha degradation.
# [2] = test system: NF-kB-dependent reporter gene; test: NF-kB-dependent reporter gene (luciferase) assay in transfected COS cells; type: cell-based, monkey
# Excerpt: (§1) The murine Pellino-1 coding sequence DNA was fused, in frame at the 3′ end, to DNA encoding the FLAG epitope, followed by an in-frame stop codon. This construct was cloned into the mammalian expression vector pDC304 (identical to pDC302, described in U.S. Pat. No. 5,599,905, issued Feb. 4, 1997, except that the early splice region, consisting of splice donor and acceptor sites of the SV40 viral element, has been removed); and transfected into an IL-1-responsive line of COS-7 cells by the DEAE-dextran method.
# In order to assay the effect of the Pellino-1-FLAG polypeptide and other forms of Pellino polypeptides on reporter gene activity, a method essentially as described in Born et al., 1998, J. Biol. Cheni. 273: 29445–29450 (which is incorporated by reference herein) can be used. As one example of this method, Cos7 cells were transiently transfected by the DEAE-dextran method as described (Cosman et al., 1984, Nature 312: 768–771, which is incorporated by reference herein), using 150 ng of the Pellino polypeptide expression construct and 700 ng of the reporter plasmid per 45,000 cells. Two days post-transfection, cells were stimulated with 10 ng/ml IL-1 or 40 ng/ml IL-18 (PeproTech, Inc.) for 4 hours. Cells were lysed and luciferase activity assessed using Reporter Lysis Buffer and Luciferase Assay Reagent (Promega Corp.). IL-8 promoter-reporter and NFkB-dependent reporter constructs may be used as reporter plasmids. Alternatively, the effect of Pellino polypeptide expression may be assayed in COS-1 cells. In an alternative preferred method, COS7 cells were grown in 12-well dishes as described above. The cells were transiently transfected with Pellino test plasmid, 50 ng of reporter plasmid DNA, and empty vector, as required, to a total of 1 micrograms of total DNA per well. After 24 hours, stimulating agents were added in a small amount (less than 0.5% final volume) of medium or dimethyl sulfoxide, and the cells were re-incubated for 5 hours. Cells were lysed in luciferase Reporter Lysis Buffer (Promega, Madison Wis., 0.25 ml per well) and luciferase activity was measured in a EG & G/Berthold luminometer after addition of Luciferase Assay Reagent (Promega) according to the supplier's instructions. All results were normalized to total protein content of the lysates as measured using the micro-BCA assay (Pierce, Rockford, Ill).
# [3] = test system: Jun N-terminal kinase, p38 kinase, and ERK signaling; test: Jun N-terminal kinase, p38 kinase and ERK signaling mediated by IL-1; type: cell-based
# [4] = test system: IL-8 promoter-reporter gene; test: IL-8 promoter-reporter gene assay in transfected COS cells; type: cell-based, monkey; details: COS-1 cells; presence and absence of TNF-alpha; compared to vector-only control
# Excerpt: as §1
# In order to assay the effect of the Pellino-1-FLAG polypeptide and other forms of Pellino polypeptides on reporter gene activity, a method essentially as described in Born et al., 1998, J. Biol. Cheni. 273: 29445–29450 (which is incorporated by reference herein) can be used. […] Cells were lysed and luciferase activity assessed using Reporter Lysis Buffer and Luciferase Assay Reagent (Promega Corp.). […] Cells were lysed in luciferase Reporter Lysis Buffer (Promega, Madison Wis., 0.25 ml per well) and luciferase activity was measured in a EG & G/Berthold luminometer after addition of Luciferase Assay Reagent (Promega) according to the supplier's instructions. All results were normalized to total protein content of the lysates as measured using the micro-BCA assay (Pierce, Rockford, Ill).
molecule,measurement,setting,value
TNF-alpha,Time after induction at which cleavage and relocation of Pellino-1 began,"[1]; TNF-alpha 20 ng/ml, time-course experiments",about three
basic fibroblast growth factor: growth factor,Effect of growth factor incubation on Pellino-1 (cleavage and redistribution),[1],little or no effect
epidermal growth factor,Effect of growth factor incubation on Pellino-1 (cleavage and redistribution),[1],very weakly active
platelet-derived growth factor,Effect of growth factor incubation on Pellino-1 (cleavage and redistribution),[1],little or no effect
transforming growth factor-beta,Effect of growth factor incubation on Pellino-1 (cleavage and redistribution),[1],little or no effect
B1,Effect on Reporter Gene,"[2]; NF-kB-dependent reporter gene activity, form of murine Pellino-1 expressed in COS cells",Stimulatory
same,IL-1-induced NFkB-dependent reporter gene activity,"[2]; preliminary experiment, COS-7 cells",partially inhibit
same,"Jun N-terminal kinase, p38 kinase, and ERK signaling mediated by IL-1",[3],moderately augmented
B2,NFkB-dependent reporter gene activity,[2]; COS cells transfected with high concentrations of expressing construct,inhibitory effect
same,IL-8 promoter-reporter gene activity,[4],stimulates
